Active and inactive are the calls of the source.
Experiments:
[1] = cells; assay type: functional, cell-based
[2] = cells; assay type: functional, cell-based; remark: listed apart in the source
[3] = off-target signal loss in HeLa-CEM21 co-culture – HeLa F-luc CTL cells, cherry-picked, counter-screen for HIV-1 Env fusion inhibitor project, dose response (AID 652040); assay type: functional, cell-based;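 further: potency for signal decrease marking cytotoxic or nonspecific inhibition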
[4] = inhibitors of clade B AD8 Env fusion, dose response, cell-based, cherry-pick (AID 652062); assay type: functional;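 further: luciferase signal from cell-cell fusion driven by HIV-1 clade B AD8 Env; potency is for inhibitors of fusion seen as a drop in luminescence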
[5] = inhibitors of HIV Env-driven cell fusion, dose response, cherry-pick (AID 652057); assay type: functional, cell-based
[6] = target: T1, Polyadenylate-binding protein 1 (Homo sapiens, UniProt P11940); assay: PABP1 MLLE–PAM2 interaction inhibitors, dose response, miRNA deadenylation inhibitor project, biochemical, fluorescence polarization, Cy5-PAM2 peptide, secondary (AID 602260); assay type: functional; conditions: read-out: IC50_Mean
[7] = target: T1, Polyadenylate-binding protein 1; assay: PABP1 MLLE–PAM2 binding inhibitor potency, dose response, biochemical, fluorescence polarization, FITC-PAM2 peptide (AID 602259); assay type: functional; conditions: read-out: IC50_Mean
[8] = target: T2, Calpain-2 catalytic subunit (Sus scrofa, UniProt P43367); assay: pig calpain II inhibitor potency, dose response, biochemical, fluorogenic peptide substrate (AID 1420); assay type: functional
T2 sequence (P43367 whole entry): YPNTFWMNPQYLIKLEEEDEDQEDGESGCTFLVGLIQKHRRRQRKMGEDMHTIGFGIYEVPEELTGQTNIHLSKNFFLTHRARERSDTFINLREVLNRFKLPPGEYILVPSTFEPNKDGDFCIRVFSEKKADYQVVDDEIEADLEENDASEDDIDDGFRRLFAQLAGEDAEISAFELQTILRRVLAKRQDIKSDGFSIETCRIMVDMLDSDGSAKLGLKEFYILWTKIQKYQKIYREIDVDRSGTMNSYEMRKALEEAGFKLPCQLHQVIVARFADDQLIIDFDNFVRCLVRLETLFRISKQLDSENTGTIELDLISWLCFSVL

[9] = target: T3, Rac GTPase-activating protein 1 (Homo sapiens, UniProt Q9H0H5); assay: MgcRacGAP GTPase-activating activity inhibitors, confirmation, biochemical, ADP Hunter fluorescence, primary and confirmatory (AID 624330); assay type: functional
T3 sequence (Q9H0H5 whole entry): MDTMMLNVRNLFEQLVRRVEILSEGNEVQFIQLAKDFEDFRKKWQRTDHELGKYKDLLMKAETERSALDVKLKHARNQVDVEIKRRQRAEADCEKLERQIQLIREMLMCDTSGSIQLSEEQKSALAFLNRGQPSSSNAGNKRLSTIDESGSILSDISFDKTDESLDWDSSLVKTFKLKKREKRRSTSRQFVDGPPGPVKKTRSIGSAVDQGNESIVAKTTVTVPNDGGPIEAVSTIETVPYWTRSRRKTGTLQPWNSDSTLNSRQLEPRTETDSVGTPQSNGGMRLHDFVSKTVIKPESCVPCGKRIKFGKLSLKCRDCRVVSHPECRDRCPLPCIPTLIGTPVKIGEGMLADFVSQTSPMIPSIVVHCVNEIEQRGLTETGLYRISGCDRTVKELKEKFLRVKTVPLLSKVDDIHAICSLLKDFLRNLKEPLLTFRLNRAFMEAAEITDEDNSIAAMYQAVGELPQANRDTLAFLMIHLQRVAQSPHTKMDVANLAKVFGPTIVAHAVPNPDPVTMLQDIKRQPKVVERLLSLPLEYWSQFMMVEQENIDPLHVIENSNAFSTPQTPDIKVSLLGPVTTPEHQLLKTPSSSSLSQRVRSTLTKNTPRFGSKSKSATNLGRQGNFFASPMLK

[10] = target: Paired box protein Pax-8 (Homo sapiens, UniProt Q06710); assay: inhibitors of PAX8-driven TPO luciferase reporter, dose response, RMG-I cells, cherry-pick (AID 687027); assay type: functional, cell-based;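 further: luciferase reporter driven by Pax8 target thyroperoxidase promoter measured by SteadyGlo luminescence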
[11] = target: T4, Protein skinhead-1 (Caenorhabditis elegans, UniProt P34707); assay type: functional
T4 sequence (P34707 whole entry): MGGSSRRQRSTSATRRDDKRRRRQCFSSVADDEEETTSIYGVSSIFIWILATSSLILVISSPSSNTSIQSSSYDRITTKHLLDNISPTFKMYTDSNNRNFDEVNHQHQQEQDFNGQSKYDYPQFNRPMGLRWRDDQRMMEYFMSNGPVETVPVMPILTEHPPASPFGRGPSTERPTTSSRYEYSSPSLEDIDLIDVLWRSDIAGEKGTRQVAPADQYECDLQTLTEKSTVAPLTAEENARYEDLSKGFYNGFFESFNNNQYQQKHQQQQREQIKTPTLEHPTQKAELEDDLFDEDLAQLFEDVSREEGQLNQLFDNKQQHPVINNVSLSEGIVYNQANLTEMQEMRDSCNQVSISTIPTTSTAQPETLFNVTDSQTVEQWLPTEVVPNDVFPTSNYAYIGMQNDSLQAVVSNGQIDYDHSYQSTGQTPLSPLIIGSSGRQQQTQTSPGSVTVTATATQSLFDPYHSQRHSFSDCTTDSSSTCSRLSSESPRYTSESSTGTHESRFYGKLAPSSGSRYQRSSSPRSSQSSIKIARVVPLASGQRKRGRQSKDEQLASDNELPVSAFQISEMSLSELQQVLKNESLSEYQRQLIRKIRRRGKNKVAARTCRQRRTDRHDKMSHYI

[12] = target: T5, Long-chain-fatty-acid--AMP ligase FadD28 (Mycobacterium tuberculosis, UniProt P9WQ59); assay: Fluorescence polarization aasay to screen for inhibitors that compete for the binding of FadD28 to a bisubstrate Measured in Biochemical System Using Plate Reader - 2147-01_Inhibitor_Dose_CherryPick_Activity.; assay type: functional, Mycobacterium tuberculosis H37Rv
T5 sequence (P9WQ59 whole entry): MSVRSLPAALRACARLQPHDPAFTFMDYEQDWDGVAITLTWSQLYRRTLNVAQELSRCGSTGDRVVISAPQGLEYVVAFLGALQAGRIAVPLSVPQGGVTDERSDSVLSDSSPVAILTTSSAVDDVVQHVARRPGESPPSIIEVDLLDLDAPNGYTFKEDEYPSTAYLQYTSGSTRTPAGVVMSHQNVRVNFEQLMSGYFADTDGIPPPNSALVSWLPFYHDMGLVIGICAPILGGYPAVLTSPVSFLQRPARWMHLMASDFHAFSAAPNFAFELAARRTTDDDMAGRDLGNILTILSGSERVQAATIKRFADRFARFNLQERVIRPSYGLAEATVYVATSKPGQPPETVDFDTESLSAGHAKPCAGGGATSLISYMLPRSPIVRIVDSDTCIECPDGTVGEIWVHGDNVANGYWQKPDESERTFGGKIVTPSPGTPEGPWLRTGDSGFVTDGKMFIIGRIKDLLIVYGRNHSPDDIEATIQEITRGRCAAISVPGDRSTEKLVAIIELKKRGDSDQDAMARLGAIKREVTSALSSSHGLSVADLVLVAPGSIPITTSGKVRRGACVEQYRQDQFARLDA

[13] = target: T6, Trace amine-associated receptor 1 (Homo sapiens, UniProt Q96RJ0); assay: Fluorescence-based cell-based high throughput dose response assay to identify agonists of the human trace amine associated receptor 1 (TAAR1).; assay type: functional
T6 sequence (Q96RJ0 whole entry): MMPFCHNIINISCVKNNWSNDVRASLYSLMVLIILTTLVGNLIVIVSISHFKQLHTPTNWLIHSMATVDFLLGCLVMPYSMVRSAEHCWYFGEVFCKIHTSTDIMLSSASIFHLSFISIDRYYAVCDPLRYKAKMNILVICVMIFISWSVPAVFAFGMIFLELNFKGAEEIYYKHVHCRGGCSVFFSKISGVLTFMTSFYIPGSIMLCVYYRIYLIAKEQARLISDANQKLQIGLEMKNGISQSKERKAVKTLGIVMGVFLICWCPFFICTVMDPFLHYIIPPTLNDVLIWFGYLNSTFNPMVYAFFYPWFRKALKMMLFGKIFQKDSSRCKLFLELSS

[14] = target: T6, Trace amine-associated receptor 1; assay: Counterscreen for agonists of the human trace amine associated receptor 1 (hTAAR1): Fluorescence-based cell-based high throughput dose response assay to identify hTAAR1 agonist that also desensitize TAAR1 receptor response.; assay type: functional

T1 sequence (P11940 whole entry): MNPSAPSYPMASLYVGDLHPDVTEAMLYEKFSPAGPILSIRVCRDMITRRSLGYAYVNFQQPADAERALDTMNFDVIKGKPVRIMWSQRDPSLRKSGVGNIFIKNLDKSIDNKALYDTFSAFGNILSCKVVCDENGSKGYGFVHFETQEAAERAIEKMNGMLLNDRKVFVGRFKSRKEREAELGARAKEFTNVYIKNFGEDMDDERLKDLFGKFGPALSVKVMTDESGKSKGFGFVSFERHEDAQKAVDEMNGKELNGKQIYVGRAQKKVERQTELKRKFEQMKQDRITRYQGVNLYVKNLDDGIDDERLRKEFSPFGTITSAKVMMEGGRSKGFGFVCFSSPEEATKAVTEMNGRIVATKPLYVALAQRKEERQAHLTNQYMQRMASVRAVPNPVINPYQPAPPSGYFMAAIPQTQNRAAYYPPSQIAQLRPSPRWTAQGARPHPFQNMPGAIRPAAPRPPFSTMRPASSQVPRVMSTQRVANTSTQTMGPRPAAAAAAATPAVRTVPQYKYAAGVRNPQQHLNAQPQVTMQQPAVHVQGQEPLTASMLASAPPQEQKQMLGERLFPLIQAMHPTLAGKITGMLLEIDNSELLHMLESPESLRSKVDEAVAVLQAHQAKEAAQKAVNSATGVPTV
Sequence of Paired box protein Pax-8 (Q06710 whole entry): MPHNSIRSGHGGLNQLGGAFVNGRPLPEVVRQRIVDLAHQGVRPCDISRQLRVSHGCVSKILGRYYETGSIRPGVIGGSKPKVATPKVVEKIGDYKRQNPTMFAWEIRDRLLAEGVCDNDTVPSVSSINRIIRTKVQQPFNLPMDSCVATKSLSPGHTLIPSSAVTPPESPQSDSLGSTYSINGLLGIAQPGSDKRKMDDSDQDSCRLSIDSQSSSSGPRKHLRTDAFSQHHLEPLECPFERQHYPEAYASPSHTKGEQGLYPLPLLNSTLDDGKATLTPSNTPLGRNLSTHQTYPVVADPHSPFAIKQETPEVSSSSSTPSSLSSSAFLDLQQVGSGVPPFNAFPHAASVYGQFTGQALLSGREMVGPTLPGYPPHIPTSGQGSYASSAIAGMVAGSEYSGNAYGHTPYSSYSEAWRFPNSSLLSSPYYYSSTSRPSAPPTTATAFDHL

For `Oc1nncc(N/N=C\c2cccs2)c1Cl`, the IC50 [1] was > 29.9 µM (inactive) and the EC50 [2] was > 29.9 µM (inactive).
For `Cn1c(=O)oc2cc(S(=O)(=O)NCc3ccncc3)ccc21`, the AC50 [3] was 58.5 µM (active) and the AC50 [4] was 17.4 µM (active).
With `COc1cccc(S(=O)(=O)N(C)C[C@@H]2Oc3cc(C#CCC(C)C)ccc3S(=O)(=O)N([C@H](C)CO)C[C@@H]2C)c1` the AC50 [5] was 20.1 µM (active) and the AC50 [4] was 17.9 µM (active).
For `O=C(c1nc2ccccn2c1CN1CCCC(O)C1)N1CCN(C2CCCCC2)CC1` (configuration not stated), the IC50 [6] was > 66 µM (inactive) and the IC50 [7] was > 66 µM (inactive).
With `COc1cccc(CNc2ccc(F)c([N+](=O)[O-])c2)c1O` the IC50 [8] was 7.78 µM (active).
For `O=c1c(-c2ccc(O)cc2)coc2cc(O)ccc12` [DAIDZEIN], the IC50 [9] was 91.3 µM (active).
In the case of `CC(C)(C)N(Cc1ccc2c(c1)OCO2)C(=O)/C=C\[S+]([O-])c1ccccc1` (configuration not stated), the IC50 [9] is reported as 125 µM (active) and the AC50 [10] is reported as 6.14 µM (active).
In the case of `C=CCn1c(SCC(=O)c2c(N)n(C)c(=O)n(C)c2=O)nnc1-c1ccoc1C`, the IC50 [11] is reported as > 100 µM (inactive).
In the case of `COc1ccccc1N1CCN(C(=O)[C@H](C)NS(=O)(=O)c2ccc3c(c2)OCCCO3)CC1`, the IC50 [6] is reported as > 66 µM (inactive) and the IC50 [7] is reported as > 66 µM (inactive).
With `O=C(CSc1nc(O)cc(=O)n1-c1ccccc1)Nc1nc2ccccc2s1` the AC50 [12] was 32 µM (active).
For `O=C(O)c1ccccc1SC1CC(=O)N(c2ccc3c(c2)OCO3)C1=O` (configuration not stated), the IC50 [6] was > 66 µM (inactive) and the IC50 [7] was > 66 µM (inactive).
With `Cc1nc(NCCc2ccccc2)c2nnn(Cc3ccccc3Cl)c2n1` the IC50 [1] was > 29.9 µM (inactive), the EC50 [13] was 0.59 µM (active) and the IC50 [14] was 3.51 µM (active). The EC50 [2] was > 29.9 µM (inactive).
With `Cc1onc(-c2c(F)cccc2Cl)c1C(=O)NC(=S)NC1CCSC1=O` (configuration not stated) the IC50 [6] was > 66 µM (inactive) and the IC50 [7] was > 66 µM (inactive).
For `C=CCc1cc(C)ccc1OCCCn1ccnc1`, the IC50 [9] was 127 µM (active).
For `O=C1c2cccc3cccc(c23)C(=O)N1CCCN1CCN(c2ccc(F)cc2)CC1`, the IC50 [8] was 8.84 µM (not active).
In the case of `Cc1c(N2C(=O)/C(=C3\C(=O)N(CC(=O)O)c4ccccc43)SC2=S)c(=O)n(-c2ccccc2)n1C`, the IC50 [6] is reported as > 66 µM (inactive) and the IC50 [7] is reported as > 66 µM (inactive).
In the case of `O=C(NCCc1ccccc1)c1ccc(CS(=O)(=O)Cc2ccccc2F)o1`, the IC50 [1] is reported as 17.7 µM (inactive), the EC50 [13] is reported as 2.78 µM (active) and the IC50 [14] is reported as 5.69 µM (active). For the same compound, the EC50 [2] was > 29.9 µM (inactive).
